Assay results reported in patent publication US10065990B2, “Cyclic peptide compound, and preparation method, pharmaceutical composition and use thereof” (HANGZHOU GUANYU BIO-MEDICAL CO., LTD, priority 2013, dated 2018).
Read-outs that look alike come from different tables or passages of the source.

How the values were obtained:
HDAC7 = molecular target: T1, HDAC7 (Homo sapiens, UniProt Q8WUI4); assay: HDAC biochemical activity measurement (fluorescent substrate deacetylation);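 also: fluorogenic deacetylation assay using acetyl-lysine substrate at 20 µM, enzyme and compound incubated 30 min at 37 °C, then developer added, fluorescence read at 360/460 nm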; settings: HDAC7; 37° C. 30 minutes
T1 sequence (Q8WUI4 1-952): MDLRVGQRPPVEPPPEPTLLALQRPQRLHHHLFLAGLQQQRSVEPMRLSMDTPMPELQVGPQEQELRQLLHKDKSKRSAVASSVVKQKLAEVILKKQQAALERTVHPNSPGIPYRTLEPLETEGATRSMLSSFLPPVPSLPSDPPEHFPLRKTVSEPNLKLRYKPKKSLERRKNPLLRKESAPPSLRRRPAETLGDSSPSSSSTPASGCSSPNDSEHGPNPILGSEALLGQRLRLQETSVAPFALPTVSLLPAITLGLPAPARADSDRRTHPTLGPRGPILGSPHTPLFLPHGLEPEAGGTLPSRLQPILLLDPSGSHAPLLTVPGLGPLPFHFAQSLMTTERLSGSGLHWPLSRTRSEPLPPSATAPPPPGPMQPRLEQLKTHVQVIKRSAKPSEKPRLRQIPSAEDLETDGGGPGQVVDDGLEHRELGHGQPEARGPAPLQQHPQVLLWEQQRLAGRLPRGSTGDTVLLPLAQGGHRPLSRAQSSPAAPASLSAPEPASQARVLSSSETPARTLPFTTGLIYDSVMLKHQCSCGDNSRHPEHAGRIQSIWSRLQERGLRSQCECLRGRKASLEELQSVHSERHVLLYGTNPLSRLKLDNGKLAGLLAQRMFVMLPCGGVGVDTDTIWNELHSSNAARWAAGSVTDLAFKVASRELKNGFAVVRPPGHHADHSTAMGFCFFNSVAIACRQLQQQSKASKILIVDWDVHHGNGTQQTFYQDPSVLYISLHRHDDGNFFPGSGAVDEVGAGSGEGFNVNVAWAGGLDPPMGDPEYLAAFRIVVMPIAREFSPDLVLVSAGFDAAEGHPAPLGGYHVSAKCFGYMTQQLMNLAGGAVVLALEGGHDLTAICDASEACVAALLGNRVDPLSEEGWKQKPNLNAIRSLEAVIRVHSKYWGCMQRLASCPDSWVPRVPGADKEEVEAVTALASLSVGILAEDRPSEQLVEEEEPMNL
Procedure: The chemical activity of the compound is determined according to the degree of deacetylation inhibition of the HDAC enzyme. This experiment measured the degree of deacetylation related to tumor proliferation and metastasis of HDAC1, HDAC2, HDAC3, HDAC8, HDAC11 five subtypes HDAC enzymes. After the substrate containing an acetylated lysine side chain and HDAC enzyme are labeled with a fluorescent label, the fluorescent substrate is de acetyl. The fluorescent labeled substrate is cleaved by the enzyme, and the fluorescent substance is released, which generates 460 nm emission light under the excitation of 360 nm light.
HDAC substrate was diluted with reaction buffer to 200M (reaction concentration of 20M), the HDAC enzyme was diluted to the appropriate concentration, then added different concentrations of the test compounds and acted at 37° C. 30 minutes, and then added the same volume of 2-times concentration substrate developing solution (developer), incubated at room temperature for 15 minutes. Finally, the last reading measured with a microplate plate reader, excitation light was 360 nm, the emitted light was 460 nm, data processing software was Prime 4, and the results are shown in Table 1.

[1] = system: KBM-5 (human chronic myelogenous leukemia); assay: MTT cancer cell growth inhibition; format: cell-based; settings: read-out: GI50 KBM-5
Source text: (§1) MTT assay principle is yellow MTT can penetrate membrane into the cell, succinic dehydrogenase of the mitochondria in living cells can make exogenous MTT reduction of insoluble in water of blue-violet acicular formazan for crystallization and deposition in the cell, crystallization can be dissolved dimethyl sulfoxide (DMSO) solution, detected its absorbance at 490 nm/570 nm wavelength by enzyme-linked immunosorbent assay, which can reflect the number of cells.
(§2) Using DMEM+10% FBS culture medium or using 1640+10% FBS culture, respectively.
(§3) a) Cells were seeded in 96-well plates with the inoculation of 1500/well, 190 μl/hole, 37° C., 5% of CO2 incubator overnight;
(§4) b) The next day each well was added 10 μl of different drugs. The final concentration of drug was 10^−5˜10^−10M, three parallel holes; 37° C., 5% CO2 culture incubator for 72 hours incubation;
(§5) c) Per well was added 20 μl 5 mg/ml of MTT, 37° C., 5% CO2 culture incubator for 4 hours incubation;
(§6) d) The supernatant was discarded. Each well was added 100 μl of DMSO and oscillation;
(§7) e) 570 nm readings. Calculate cell viability. GI50 calculation based on the results.

[2] = system: PANC-1 (Pac-1, human pancreatic cancer cells); assay: MTT cancer cell growth inhibition; format: cell-based; settings: Homo sapiens, PANC-1, 72 h, read-out: GI50 PAN
Source text: as §1, §2, §3, §4, §5, §6, §7

[3] = system: N-87 (human gastric cancer cells); assay: MTT cancer cell growth inhibition; format: cell-based; settings: read-out: GI50 N-87
Source text: as §1, §2, §3, §4, §5, §6, §7

[4] = system: U937 (human leukemia cells); assay: MTT cancer cell growth inhibition; format: cell-based; settings: Homo sapiens, U-937, 72 h, read-out: GI50 U93
Source text: as §1, §2, §3, §4, §5, §6, §7

[5] = system: HT1080 (human fibrosarcoma cells); assay: MTT cancer cell growth inhibition; format: cell-based; settings: Homo sapiens, HT-1080, 72 h, read-out: GI50 HT1
Source text: as §1, §2, §3, §4, §5, §6, §7

[6] = system: HCC827 (human non-small cell lung cancer cells); assay: MTT cancer cell growth inhibition; format: cell-based; settings: Homo sapiens, HCC827, 72 h, read-out: GI50 HCC827
Source text: as §1, §2, §3, §4, §5, §6, §7

[7] = system: A549 (human lung cancer cells); assay: MTT cancer cell growth inhibition; format: cell-based; settings: Homo sapiens, A549, 72 h, read-out: GI50 A54
Source text: as §1, §2, §3, §4, §5, §6, §7

[8] = system: MOLT-4 (human acute lymphoblastic leukemia cells); assay: MTT cancer cell growth inhibition; format: cell-based; settings: Homo sapiens, MOLT-4, 72 h, read-out: GI50 Mol
Source text: as §1, §2, §3, §4, §5, §6, §7

[9] = system: K562 (human leukemia cells); assay: MTT cancer cell growth inhibition; format: cell-based; settings: read-out: GI50 K562
Source text: as §1, §2, §3, §4, §5, §6, §7

[10] = system: MDA-MB-231 (breast cancer cells); assay: MTT cancer cell growth inhibition; format: cell-based
Source text: as §1, §2, §3, §4, §5, §6, §7

[11] = system: BGC-823 (human gastric cancer cells); assay: MTT cancer cell growth inhibition; format: cell-based; settings: read-out: GI50 BG
Source text: as §1, §2, §3, §4, §5, §6, §7

[12] = system: DU145 (human prostate cancer cells); assay: MTT cancer cell growth inhibition; format: cell-based; settings: Homo sapiens, DU-145, 72 h, read-out: GI50 Du1
Source text: as §1, §2, §3, §4, §5, §6, §7

[13] = system: H1975 (non-small cell lung adenocarcinoma); assay: MTT cancer cell growth inhibition; format: cell-based; settings: Homo sapiens, NCI-H1975, 72 h, read-out: GI50 H1975
Source text: as §1, §2, §3, §4, §5, §6, §7

[14] = system: SGC-7901 (human gastric cancer cells); assay: MTT cancer cell growth inhibition; format: cell-based; settings: read-out: GI50 SGC-7901
Source text: as §1, §2, §3, §4, §5, §6, §7

[15] = system: MCF-7 (human breast cancer cells); assay: MTT cancer cell growth inhibition; format: cell-based; settings: Homo sapiens, MCF7, 72 h, 72 hours incubation, read-out: GI50 MCF
Source text: as §1, §2, §3, §4, §5, §6, §7

[16] = system: Bel-7402 (human hepatoma cells); assay: MTT cancer cell growth inhibition; format: cell-based; settings: Homo sapiens, Bel-7402, 72 h, read-out: GI50 Bel-7402
Source text: as §1, §2, §3, §4, §5, §6, §7

[17] = system: lncap (prostate cancer cells); assay: MTT cancer cell growth inhibition; format: cell-based; settings: read-out: GI50 lnca
Source text: as §1, §2, §3, §4, §5, §6, §7

[18] = system: Huh-7 (human hepatoma cells); assay: MTT cancer cell growth inhibition; format: cell-based; settings: Homo sapiens, Huh-7, 72 h, read-out: GI50 Huh-7
Source text: as §1, §2, §3, §4, §5, §6, §7

[19] = system: KBM5-T315I (human chronic myelogenous leukemia); assay: MTT cancer cell growth inhibition; format: cell-based; settings: Homo sapiens, 72 h, read-out: GI50 KBM5-T315I
Source text: as §1, §2, §3, §4, §5, §6, §7

[20] = system: Hela (human cervical cancer cells); assay: MTT cancer cell growth inhibition; format: cell-based; settings: read-out: GI50 Hela
Source text: as §1, §2, §3, §4, §5, §6, §7

[21] = Homo sapiens, KBM5, 72 h, MTT, 72 hours incubation, KBM-5 cells
[22] = Homo sapiens, 72 h, MTT, 72 hours incubation, N-87 cells
[23] = MTT, 72 hours incubation, HCC827 cells
[24] = Homo sapiens, K562, 72 h, MTT, 72 hours incubation, K562 cells
[25] = Homo sapiens, MDA-MB-231, 72 h, read-out: GI50 MDA-MB-231, MTT, 72 hours incubation, MDA-MB-231 cells
[26] = MTT, 72 hours incubation, H1975 cells
[27] = Homo sapiens, SGC-7901, 72 h, MTT, 72 hours incubation, SGC-7901 cells
[28] = MTT, 72 hours incubation, Bel-7402 cells
[29] = MTT, 72 hours incubation, Huh-7 cells
[30] = MTT, 72 hours incubation, KBM5-T315I cells
[31] = PANC-1 cells, MTT, 72 hours incubation
[32] = U937 cells, MTT, 72 hours incubation
[33] = HT1080 cells, MTT, 72 hours incubation
[34] = A549 cells, MTT, 72 hours incubation
[35] = MOLT-4 cells, MTT, 72 hours incubation
[36] = DU145 cells, MTT, 72 hours incubation

Row | IC50 HDAC7 (HDAC7) | GI50 [1, 21] | GI50 [3, 22] | GI50 [6, 23] | GI50 [9, 24] | GI50 [10, 25] | GI50 [13, 26] | GI50 [14, 27] | GI50 [16, 28] | GI50 [18, 29] | GI50 [19, 30] | GI50 [2, 31] | GI50 [4, 32] | GI50 [5, 33] | GI50 [7, 34] | GI50 [8, 35] | GI50 [12, 36] | Compound | other results
1 | no activity | 48 nM | 29 nM | 49 nM | 35 nM | 45 nM | 53 nM | 81 nM | 16 nM | 43 nM | 26 nM |  |  |  |  |  |  | CC(C)=C1NC(=O)c2cc(F)cc(n2)CNC(=O)C[C@@H](/C=C/CCS)OC(=O)[C@H](C(C)C)NC1=O [Compound 137] | GI50 ([2]; MTT, 72 hours incubation): 80 nM; GI50 ([4]; MTT, 72 hours incubation): 30 nM; GI50 ([5]; MTT, 72 hours incubation): 80 nM; GI50 ([7]; MTT, 72 hours incubation): 20 nM; GI50 ([8]; MTT, 72 hours incubation): 40 nM; GI50 ([11]; Homo sapiens, BGC-823, 72 h, MTT, 72 hours incubation): 30 nM; GI50 ([12]; MTT, 72 hours incubation): 30 nM; GI50 [15]: 30 nM; GI50 ([17]; Homo sapiens, LNCaP, 72 h, MTT, 72 hours incubation): 20 nM; GI50 ([20]; Homo sapiens, HeLa, 72 h, MTT, 72 hours incubation): 70 nM
2 | no activity |  |  |  |  |  |  |  |  |  |  |  |  |  |  |  |  | O=C(CCCCCCC(=O)Nc1ccccc1)NO [SAHA, suberoylanilide hydroxamic acid, reference compound] | GI50 ([1]; Homo sapiens, KBM5, 72 h): 11200 nM; GI50 [2]: 7620 nM; GI50 ([3]; Homo sapiens, 72 h): 13200 nM; GI50 [4]: 2350 nM; GI50 [5]: 3970 nM; GI50 [6]: 16700 nM; GI50 [7]: 8530 nM; GI50 [8]: 10000 nM; GI50 ([9]; Homo sapiens, K562, 72 h): 10100 nM; GI50 ([10]; Homo sapiens, MDA-MB-231, 72 h, read-out: GI50 MDA-MB-231): 22500 nM; GI50 ([11]; Homo sapiens, BGC-823, 72 h): 5230 nM; GI50 [12]: 15200 nM; GI50 [13]: 15200 nM; GI50 ([14]; Homo sapiens, SGC-7901, 72 h): 12500 nM; GI50 [16]: 12700 nM; GI50 ([17]; Homo sapiens, LNCaP, 72 h): 4610 nM; GI50 [18]: 18300 nM; GI50 [19]: 86700 nM; GI50 ([20]; Homo sapiens, HeLa, 72 h): 30200 nM
3 | no activity | 27 nM | 97 nM | 12 nM | 61 nM | 76 nM | 75 nM | 82 nM | 48 nM | 39 nM | 39 nM | 20 nM | 60 nM | 10 nM | 50 nM | 20 nM | 10 nM | C=C1NC(=O)c2ccc(SC)c(n2)CNC(=O)C[C@@H](/C=C/CCSC(C)=O)OC(=O)[C@H](C(C)C)NC1=O [Compound 206] | GI50 ([11]; Homo sapiens, BGC-823, 72 h, BGC-823 cells, MTT, 72 hours incubation): 20 nM; GI50 ([15]; MCF-7 cells): 30 nM; GI50 ([17]; Homo sapiens, LNCaP, 72 h, lncap cells, MTT, 72 hours incubation): 70 nM
4 | no activity |  |  | 62 nM |  |  | 58 nM |  | 56 nM | 38 nM | 43 nM | 60 nM | 30 nM | 80 nM | 110 nM | 30 nM | 60 nM | C/C=C1\NC(=O)c2cc(SC)cc(n2)CNC(=O)C[C@@H](/C=C/CCSC(C)=O)OC(=O)[C@H](C)NC1=O [Compound 184] | GI50 ([1]; MTT, 72 hours incubation, KBM-5 cells): 78 nM; GI50 ([3]; MTT, 72 hours incubation, N-87 cells): 42 nM; GI50 ([9]; MTT, 72 hours incubation, K562 cells): 23 nM; GI50 ([10]; read-out: GI50 MDA-MB-231, MTT, 72 hours incubation, MDA-MB-231 cells): 74 nM; GI50 ([11]; BGC-823 cells, MTT, 72 hours incubation): 50 nM; GI50 ([14]; MTT, 72 hours incubation, SGC-7901 cells): 11 nM; GI50 ([17]; lncap cells, MTT, 72 hours incubation): 20 nM; GI50 ([20]; Hela cells, MTT, 72 hours incubation): 20 nM
